What is called IC50 is the concentration needed to halve the response being measured.

The source of these data is article PMC7745420 (ACS Omega, 2020).

Structures are written as SMILES.

In the assay the target is p97/VCP (Homo sapiens, UniProt P55072). The experiment in a line: ATPase assay on purified human p97/VCP. It counts as biochemical.
Sequence of p97/VCP (P55072 2-806): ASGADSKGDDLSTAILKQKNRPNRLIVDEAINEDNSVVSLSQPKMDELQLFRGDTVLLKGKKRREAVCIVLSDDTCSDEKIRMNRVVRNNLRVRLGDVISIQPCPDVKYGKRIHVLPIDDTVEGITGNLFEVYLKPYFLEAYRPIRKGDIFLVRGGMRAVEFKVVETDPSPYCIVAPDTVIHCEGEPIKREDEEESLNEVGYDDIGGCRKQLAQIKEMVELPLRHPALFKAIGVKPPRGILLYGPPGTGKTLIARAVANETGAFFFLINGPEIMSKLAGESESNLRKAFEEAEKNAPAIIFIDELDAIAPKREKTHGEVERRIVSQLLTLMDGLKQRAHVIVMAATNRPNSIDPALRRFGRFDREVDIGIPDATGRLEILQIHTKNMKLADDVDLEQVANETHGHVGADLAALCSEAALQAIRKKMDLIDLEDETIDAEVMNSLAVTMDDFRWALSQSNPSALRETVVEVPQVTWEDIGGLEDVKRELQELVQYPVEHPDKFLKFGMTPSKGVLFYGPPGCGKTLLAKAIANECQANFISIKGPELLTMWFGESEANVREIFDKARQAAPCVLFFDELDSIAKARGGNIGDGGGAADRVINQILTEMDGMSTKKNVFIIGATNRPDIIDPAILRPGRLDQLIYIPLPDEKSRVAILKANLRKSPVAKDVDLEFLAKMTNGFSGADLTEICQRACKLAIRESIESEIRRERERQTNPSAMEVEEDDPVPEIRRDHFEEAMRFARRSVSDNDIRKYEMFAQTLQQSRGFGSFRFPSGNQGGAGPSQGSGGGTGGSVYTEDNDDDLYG

As to `NCCc1cn(-c2nc(NCc3ccccc3)c3ccccc3n2)c2ccccc12` [FQ393, 2-[3-(2-Aminoethyl)-1H-indol-1-yl]-N-benzylquinazolin-4-amine], it took 900 ± 110 nM to reach half-maximal inhibition (IC50).
